Measured values: ChEMBL document CHEMBL1201862, “PubChem BioAssay data set” (2004)
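Method: 48-hour compound exposure of cells in 96-well plates, five concentrations, linear interpolation of endpoints. GI50 = concentration required for 50% inhibition of growth.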 Calls of active or inactive are those of the source. No stated cut-off is given here; in the data, active = GI50 up to about 1.1 µM and inactive = higher.

How the values were obtained:
Assay in all cases: NCI anticancer screen, dose series, 48 h
NCI-H522 = system: NCI-H522
OVCAR-3 = system: OVCAR-3
K562 = system: K562
SK-MEL-2 = system: SK-MEL-2
U-251 = system: U-251
OVCAR-8 = system: OVCAR-8
DU-145 = system: DU-145
SK-OV-3 = system: SK-OV-3
A549 = system: A549
SF-295 = system: SF-295
LOX IMVI = system: LOX IMVI
MDA-MB-231 = system: MDA-MB-231
HOP-62 = system: HOP-62
NCI-H460 = system: NCI-H460
HCC 2998 = system: HCC 2998
MOLT-4 = system: MOLT-4
NCI/ADR-RES = system: NCI/ADR-RES
MCF7 = system: MCF7
UACC-62 = system: UACC-62
ACHN = system: ACHN

For N=C(N)NC(=N)Nc1ccc(S(N)(=O)=O)cc1, the GI50 (NCI-H522) was > 100 µM (inactive), the GI50 (OVCAR-3) was > 100 µM (inactive) and the GI50 (K562) was > 100 µM (inactive). The GI50 (SK-MEL-2) was > 100 µM (inactive), the GI50 (U-251) was > 100 µM (inactive) and the GI50 (OVCAR-8) was > 100 µM (inactive). The GI50 (DU-145) was > 100 µM (inactive), the GI50 (SK-OV-3) was > 100 µM (inactive) and the GI50 (A549) was > 100 µM (inactive). For the same compound, the GI50 (SF-295) was > 100 µM (inactive), the GI50 (LOX IMVI) was > 100 µM (inactive) and the GI50 (MDA-MB-231) was > 100 µM (inactive). For the same compound, the GI50 (HOP-62) was > 100 µM (inactive), the GI50 (NCI-H460) was > 100 µM (inactive) and the GI50 (HCC 2998) was 6.27 µM (inactive). For the same compound, the GI50 (MOLT-4) was > 100 µM (inactive), the GI50 (NCI/ADR-RES) was > 100 µM (inactive) and the GI50 (MCF7) was > 100 µM (inactive). The GI50 (UACC-62) was > 100 µM (inactive) and the GI50 (ACHN) was > 100 µM (inactive).

For COc1ccc2nc3cc([N+](=O)[O-])ccc3c(NNc3ccccc3)c2c1, the GI50 (NCI-H522) was 20.7 µM (inactive), the GI50 (OVCAR-3) was 30 µM (inactive) and the GI50 (K562) was 5.69 µM (inactive). For the same compound, the GI50 (SK-MEL-2) was 27.4 µM (inactive), the GI50 (U-251) was 18.7 µM (inactive) and the GI50 (OVCAR-8) was 39.3 µM (inactive). For the same compound, the GI50 (DU-145) was 42.1 µM (inactive), the GI50 (SK-OV-3) was > 73.6 µM (inactive) and the GI50 (A549) was 13.9 µM (inactive). For the same compound, the GI50 (SF-295) was 35.5 µM (inactive), the GI50 (LOX IMVI) was 29 µM (inactive) and the GI50 (MDA-MB-231) was 20.6 µM (inactive). For the same compound, the GI50 (HOP-62) was 27.7 µM (inactive), the GI50 (NCI-H460) was 11.7 µM (inactive) and the GI50 (HCC 2998) was 23.2 µM (inactive). The GI50 (MOLT-4) was 21 µM (inactive), the GI50 (NCI/ADR-RES) was 31 µM (inactive) and the GI50 (MCF7) was 10.8 µM (inactive). For the same compound, the GI50 (UACC-62) was 2 µM (inactive) and the GI50 (ACHN) was 30 µM (inactive).

For Cc1ccc(C2(c3ccc(F)cc3)OC(=O)c3ccccc32)c(O)c1 (stereo not given), the GI50 (NCI-H522) was 14.5 µM (inactive), the GI50 (OVCAR-3) was 3.56 µM (inactive) and the GI50 (K562) was 14.2 µM (inactive). The GI50 (SK-MEL-2) was 14.7 µM (inactive), the GI50 (U-251) was 18.5 µM (inactive) and the GI50 (OVCAR-8) was 18.2 µM (inactive). For the same compound, the GI50 (DU-145) was 15.4 µM (inactive), the GI50 (SK-OV-3) was 11.9 µM (inactive) and the GI50 (A549) was 15.8 µM (inactive). For the same compound, the GI50 (SF-295) was 11.5 µM (inactive), the GI50 (LOX IMVI) was 13.9 µM (inactive) and the GI50 (MDA-MB-231) was 17.9 µM (inactive). For the same compound, the GI50 (HOP-62) was 14.6 µM (inactive), the GI50 (NCI-H460) was 17 µM (inactive) and the GI50 (HCC 2998) was 22.4 µM (inactive). For the same compound, the GI50 (MOLT-4) was 10.8 µM (inactive), the GI50 (NCI/ADR-RES) was 16.1 µM (inactive) and the GI50 (MCF7) was 17 µM (inactive). The GI50 (UACC-62) was 10.5 µM (inactive) and the GI50 (ACHN) was 14.8 µM (inactive).

CCOC(=O)c1ccc(-c2cccs2)[nH]1 was tested, and the GI50 (NCI-H522) was 32.7 µM (inactive), the GI50 (OVCAR-3) was 59.8 µM (inactive) and the GI50 (K562) was 71.3 µM (inactive). The GI50 (SK-MEL-2) was > 100 µM (inactive), the GI50 (U-251) was > 76.4 µM (inactive) and the GI50 (OVCAR-8) was > 55.5 µM (inactive). For the same compound, the GI50 (DU-145) was 49 µM (inactive), the GI50 (SK-OV-3) was > 62.7 µM (inactive) and the GI50 (A549) was > 62.5 µM (inactive). The GI50 (SF-295) was > 100 µM (inactive), the GI50 (LOX IMVI) was > 100 µM (inactive) and the GI50 (MDA-MB-231) was > 61.8 µM (inactive). The GI50 (HOP-62) was > 66.4 µM (inactive), the GI50 (NCI-H460) was > 100 µM (inactive) and the GI50 (HCC 2998) was > 100 µM (inactive). For the same compound, the GI50 (MOLT-4) was 51.4 µM (inactive), the GI50 (NCI/ADR-RES) was 42.2 µM (inactive) and the GI50 (MCF7) was 53.7 µM (inactive). For the same compound, the GI50 (UACC-62) was 52.7 µM (inactive) and the GI50 (ACHN) was 78.9 µM (inactive).

In the case of C=C1C(=O)O[C@@H]2C[C@@H]3[C@]4(CC[C@]5(C)[C@@H]([C@H](C)CC/C=C(\C)C=O)CC[C@@]35C)C[C@]4(CCC(=O)OC)[C@H]12, the GI50 (NCI-H522) is reported as 3.09 µM (inactive), the GI50 (OVCAR-3) is reported as 1.62 µM (inactive) and the GI50 (K562) is reported as 0.845 µM (active). For the same compound, the GI50 (SK-MEL-2) was 1.77 µM (inactive), the GI50 (U-251) was 1.38 µM (inactive) and the GI50 (OVCAR-8) was 1.12 µM (active). The GI50 (DU-145) was 1.79 µM (inactive), the GI50 (SK-OV-3) was 3.52 µM (inactive) and the GI50 (A549) was 6.64 µM (inactive). The GI50 (SF-295) was 2.14 µM (inactive), the GI50 (LOX IMVI) was 1.28 µM (inactive) and the GI50 (MDA-MB-231) was 1.95 µM (inactive). For the same compound, the GI50 (HOP-62) was 2.38 µM (inactive), the GI50 (NCI-H460) was 2.8 µM (inactive) and the GI50 (HCC 2998) was 2.14 µM (inactive). For the same compound, the GI50 (MOLT-4) was 0.979 µM (active), the GI50 (NCI/ADR-RES) was 2.35 µM (inactive) and the GI50 (MCF7) was 1.46 µM (inactive). For the same compound, the GI50 (UACC-62) was 1.56 µM (inactive) and the GI50 (ACHN) was 2.06 µM (inactive).
